Results published in US9714247B2, “Multiple kinase pathway inhibitors” (Mannkind Corporation, priority 2012, dated 2017).

System: PLC-γ2 phosphorylation in DoHH-2
Assay: PLCγ2 phosphorylation by flow cytometry
Format: cell-based, human
Settings: DoHH-2, increasing concentrations (data not shown)
Protocol: PLCγ2 phosphorylation was also assessed by flow cytometry. Cells were similarly stimulated and following stimulation, Cytofix buffer (Becton Dickinson) was added, cells were centrifuged and the cell pellets incubated on ice with Phosflow perm buffer III (Becton Dickinson). These cell pellets were washed with Perm/Wash buffer (Becton Dickinson); resuspended and labeled for flow cytometry analysis in a staining mixture containing Perm/Wash buffer and PE-labeled anti-phosphoPCLγa2 (Tyr1217) antibody (Becton Dickinson). The samples were washed with Perm/Wash buffer and analyzed on a FACS Calibur flow cytometer using CellQuest Pro software. As mentioned for the Western blot experiments, phosphorylation of PLCγ2 at Tyr1217 along with Tyr753, Tyr759 and Tyr1197 is correlated with increased PLCγ2 activity. The readout for BTK network signaling was inhibition of phosphorylation of PLCγ2. Cells were gated to exclude dead or dying cells. Fluorescence signals from the antibody staining were plotted in logarithmic units and data was analyzed using Cellquest Pro software. […] An ED50 was calculated based on the geometric mean of fluorescence intensity observed for treatment for four different concentrations of the inhibitors (see Table 7 and FIG. 6). […] Thus treatment with amino naphthyridinones inhibits PLCγ2 phosphorylation consistent with inhibition of BTK and/or LYN activity.

CCN(CC)CCOc1ccc(Nc2cc3c(cn2)cc(-c2ccccc2)c(=O)n3CC)nc1 [Compound 1, 7-[5-(2-Diethylamino-ethoxy)-pyridin-2-ylamino]-1-ethyl-3-phenyl-1H-[1, 6]naphthyridin-2-one]
Inhibition of PLC-γ2 phosphorylation (flow cytometry): dose dependent decrease in PLC-γ2 phosphorylation
